Source: US10294202B2, “Pyrrolidinones as herbicides” (FMC Corporation, priority 2013, dated 2019)

What was measured:
deadnettle = experiment: Test C postemergence herbicide test; type: in vivo, Lamium amplexicaule
Source text: At the same time, plants selected from these crop and weed species and also barley (winter barley, Hordeum vulgare), […]), chickweed (common chickweed, Stellaria media), deadnettle (henbit deadnettle, Lamium amplexicaule), and canarygrass (littleseed canarygrass, Phalaris minor) were planted in pots containing Redi-Earth® planting medium (Scotts Company, 14111 Scottslawn Road, Marysville, Ohio 43041) comprising spaghnum peat moss, vermiculite, wetting agent and starter nutrients and treated with postemergence applications of test chemicals formulated in the same manner. Plants ranged in height from 2 to 18 cm (1- to 4-leaf stage) for postemergence treatments. Treated plants and controls were maintained in a greenhouse for 13 to 15 days, after which time all species were compared to controls and visually evaluated. Plant response ratings, summarized in Table C, are based on a scale of 0 to 100 where 0 is no effect and 100 is complete control. A dash (-) response means no test result.

Rice, W.S. Jap = experiment: Test F flood (paddy) test; type: in vivo, Oryza sativa cv. Japonica—M202; conditions: 21 d, scale 0-100
Method in brief: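 Visual injury ratings (0 no effect to 100 complete control) were taken 21 d after treatment against untreated controls. Compounds went directly into paddy water held 3 cm above soil, applied at the 2.0–2.5-leaf stage in sterilized Tama silt loam under a 30/27 °C, 16-h greenhouse regime.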

giant foxtail (SETFA) = experiment: Test H preemergence mixture test (Colby); type: in vivo, Setaria faberii; conditions: for Plant response rating, Obsd., SETFA: 21 d after treatment, scale 0 to 100; for SETFA Obsd.: applied alone, 21 d, mean of three replicates, scale 0-100
Source text: (§1) Colby's Equation was used to determine the herbicidal effects expected from the mixtures. Colby's Equation (Colby, S. R. “Calculating Synergistic and Antagonistic Responses of Herbicide Combinations,” Weeds, 15(1), pp 20-22 (1967)) calculates the expected additive effect of herbicidal mixtures and for two active ingredients is of the form: Pa+b=Pa+Pb−(PaPb/100)
(§2) where • Pa+b is the percentage effect of the mixture expected from additive contribution of the individual components: • Pa is the observed percentage effect of the first active ingredient at the same use rate as in the mixture, and • Pb is the observed percentage effect of the second active ingredient at the same use rate as in the mixture. In the following Tables, rates are shown in grams of active ingredient per hectare (g a.i./ha); “Obsd.” is the observed effect. “Exp.” is the expected effect calculated from Colby's Equation.
(§3) This test evaluated the effect of mixtures of compound 80 with several commercial herbicides on four plant species. Seeds of plant species selected from corn (ZEAMD, Zea mays), soybean (GLXMA, Glycine max), waterhemp (common waterhemp, AMATA, Amaranthus rudis), and giant foxtail (SETFA, Setaria faberii) were planted into a silt loam soil and treated preemergence with test chemicals formulated in a non-phytotoxic solvent mixture which included a surfactant and applied using a volume of 281 L/ha. Each treatment was replicated three times. Treated plants and controls were maintained in a greenhouse using supplemental lighting to maintain a photoperiod of about 16 h; daytime and nighttime temperatures were about 24-30° C. and 19-21° C., respectively. Nutrients were applied using a balanced fertilizer applied through the watering system. At 21 d after treatment, all species were compared to controls and visually evaluated. Plant response ratings were calculated as the means of the three replicates, are summarized in Tables H1 through H5, and are based on a scale of 0 to 100 where 0 is no effect and 100 is complete control. A dash (-) response means no test result. The Expected (Exp.) results were calculated using Colby's Equation as described for Test G above.

corn (ZEAMD) = experiment: Test H preemergence mixture test (Colby); type: in vivo, Zea mays; conditions: for Plant response rating, Obsd., ZEAMD: 21 d after treatment, scale 0 to 100; for ZEAMD Obsd.: applied alone, 21 d, mean of three replicates, scale 0-100
Source text: as §1, §2, §3

O=C1NCC(c2ccc(F)c(F)c2)C1C(=O)Nc1cccc(F)c1F (centres unmarked) [Compound 17, N-(2,3-difluorophenyl)-4-(3,4-difluorophenyl)-2-oxo-3-pyrrolidinecarboxamide]
Plant response rating, Deadnettle (deadnettle; 31 g ai/ha, scale 0 (no effect) to 100 (complete control)): 0 | Plant response rating, Deadnettle (deadnettle; 62 g ai/ha, scale 0 to 100 (0 no effect, 100 complete control)): 0 | Plant response rating, Deadnettle (deadnettle; 125 g ai/ha, scale 0 to 100 (0 no effect, 100 complete control)): 0 | Plant response rating, Deadnettle (deadnettle; 250 g ai/ha, scale 0 to 100 (0 no effect, 100 complete control)): 0 | Plant response rating, Rice, W.S. Jap (Rice, W.S. Jap; 125 g ai/ha): 0 | Plant response rating, Rice, W.S. Jap (Rice, W.S. Jap; 250 g ai/ha): 15 | Plant response rating, Rice, W.S. Jap (Rice, W.S. Jap; 500 g ai/ha): 15 | Plant response rating, Rice, W.S. Jap (Rice, W.S. Jap; 1000 g ai/ha): 60 | Plant response rating, Rice, W.S. Jap (Rice, W.S. Jap; 2000 g ai/ha): 85

O=C1NCC(c2ccc(C(F)(F)F)cc2)C1C(=O)Nc1cccc(F)c1F (centres unmarked) [Compound 80, N-(2,3-difluorophenyl)-2-oxo-4-[4-(trifluoromethyl)phenyl]-3-pyrrolidinecarboxamide]
Plant response rating, Obsd., SETFA (giant foxtail (SETFA); Cmpd 80 alone 62 g a.i./ha): 52 | Plant response rating, Obsd., SETFA (giant foxtail (SETFA); Cmpd 80 alone 125 g a.i./ha): 78 | SETFA Obsd. (giant foxtail (SETFA); 62 g a.i./ha): 52 | SETFA Obsd. (giant foxtail (SETFA); 125 g a.i./ha): 78 | Plant response rating, Obsd., ZEAMD (corn (ZEAMD); Cmpd 80 alone 62 g a.i./ha): 17 | Plant response rating, Obsd., ZEAMD (corn (ZEAMD); Cmpd 80 alone 125 g a.i./ha): 13 | ZEAMD Obsd. (corn (ZEAMD); 62 g a.i./ha): 17 | ZEAMD Obsd. (corn (ZEAMD); 125 g a.i./ha): 13
